Measured values reported in US9499537B2, “Antiviral pyrrolopyridine derivatives and method for preparing the same” (KOREA RESEARCH INSTITUTE OF CHEMICAL TECHNOLOGY, priority 2011, dated 2016).

Tests used:
MT-4 cells = assay: Cytotoxicity test in MT-4 cells (MTT method); format: cell-based; conditions: human

Row | SMILES | CC60 (μM) ** : concentration at 50% cell damage with respect to MT-4 cells (MT-4 cells) [µM] | melting point [°C]
1 | Cc1nc2c(c(C)c(C)n2Cc2cc[nH]n2)c(-c2ccc(Cl)cc2)c1[C@H](OC(C)(C)C)C(=O)O [Example 45, (S)-2-(1-((1H-pyrazol-3-yl)methyl)-4-(4-chlorophenyl)-2,3,6-trimethyl-1H-pyrrolo[2,3-b]pyridin-5-yl)-2-(tert-butoxy)acetic acid] | 19.33 | 140
2 | Cc1nc2c(c(C)c(C)n2Cc2cn[nH]c2)c(-c2ccc(Cl)cc2)c1[C@H](OC(C)(C)C)C(=O)O [Example 46, (S)-2-(1-((1H-Pyrazol-4-yl)methyl)-4-(4-chlorophenyl)-2,3,6-trimethyl-1H-pyrrolo[2,3-b]pyridin-5-yl)-2-(tert-butoxy)acetic acid] | 20.89 | > 230
